What was measured:
Type in all cases: in vivo, rat
[1] = tested on: Western diet fed Sprague Dawley rats; test: Hepatic triglyceride (steatosis), Western diet fed rats; settings: oral, Day 28
Procedure: (§1) A randomized, vehicle-controlled, 8-parallel arm study was conducted in male Sprague-Dawley rats (Charles River (Boston, MA)) to obtain circulating and hepatic TG levels. Standard laboratory conditions were used to house 96 rats (˜200 g); they were double housed and kept under 12:12-hour reverse light-dark schedule (lights off at 8:00 AM). Rats were randomized into chow or Western diet groups and dose groups upon arrival and were given a 14-day lead-in period on either standard rat chow or Western diet prior to the start of the study. Standard Laboratory Rodent chow diet, 5053, was from LabDiet (PMI, St Louis, Missouri). Western Diet, D12079Bi, was from Research Diets (New Brunswick, New Jersey).
Starting on Day 1 of the study, rats were dosed orally (10 mL/kg) with either vehicle control (0.5% MC (wt/volume %) in dionized water), low or high doses of Compound A (1 mg/kg or 10 mg/kg QD, respectively), low or high doses of Compound D (5 mg/kg or 30 mg/kg BID respectively), or co-administration of low doses (Compound A at 1 mg/kg QD and Compound D at 5 mg/kg BID), or co-administration of high doses (Compound A at 10 mg/kg QD and Compound D at 30 mg/kg BID)
On the last day of the study (Day 28), rats were sacrificed for tissue collection after a 4 hour fast, 2 hours post-dose: two hours post-dose, blood for determining plasma analytes was collected via lateral tail vein and then the animals were sacrificed by CO2 asphyxiation. Blood was transferred to BD Microtainer tubes coated with K2EDTA (PN365974), centrifuged at 4° C. and the plasma transferred to a 96-well microtitre plate and stored at −20° C. Livers were rapidly removed, freeze-clamped in a Wollenberg clamp pre-cooled in liquid N2 individually wrapped in aluminum foil and subsequently stored at −80° C.
Tissue pulverization: Frozen livers were rapidly pulverized on an aluminum block cooled in liquid N2, ensuring the tissue remained frozen throughout the pulverization. The pulverized tissues were transferred and stored in 7 mL polypropylene conical tubes at −80° C. until analysis.
Extraction for hepatic triglyceride: Approximately 50 to 100 mg of pulverized tissue was added to a 2 mL lysing matrix D tube (MP Bio) containing 800 μL ice cold 1:1 CHCl3:MEOH. Samples were immediately extracted at 4° C. using Qiagen Tissue Lyser II (Qiagen Cat No. 85300) for 4 minutes at 30 Hz. The homogenate was then transferred to 13×100 mm glass tubes and placed on ice. The lysis tubes were then rinsed with 800 μL of 1:1 CHCl3:MeOH, vortexed for 30 seconds and added to the 13×100 mm glass tubes. While on ice, 2.4 ml of 100% CHCl3 was added to all glass vials to bring the ratio of CHCl3:MeOH to 4:2. Samples were then placed in the −20° C. freezer overnight. […]

[2] = tested on: sterol regulatory element-binding protein 1c (SREBP-1c); test: Hepatic lipogenic gene expression (qPCR), Western diet fed rats: SREBP-1c; settings: Actb housekeeping gene, Day 28 liver
Procedure: as §1
(§2) Starting on Day 1 of the study, rats were dosed orally (10 mL/kg) with either vehicle control (0.5% MC (wt/volume %) in dionized water), low or high doses of Compound A (1 mg/kg or 10 mg/kg QD, respectively), low or high doses of Compound D (5 mg/kg or 30 mg/kg BID respectively), or co-administration of low doses (Compound A at 1 mg/kg QD and Compound D at 5 mg/kg BID), or co-administration of high doses (Compound A at 10 mg/kg QD and Compound D at 30 mg/kg BID) […]
(§3) Another portion of the pulverized liver was processed and analyzed for lipogenic gene expression. Rat taqman probes against ACC1, FASN, SCD1, PCSK9 and SREBP-1c were all assessed using Actb as housekeeping gene on qPCR.

[3] = tested on: proprotein convertase subtilisin/kexin type 9 (PCSK9); test: Hepatic lipogenic gene expression (qPCR), Western diet fed rats: PCSK9; settings: Actb housekeeping gene, Day 28 liver
Procedure: as §1, §2, §3

[4] = high dose (Compound A 10 mg/kg QD; Compound D 30 mg/kg BID; or both co-administered)
[5] = low dose (Compound A 1 mg/kg QD; Compound D 5 mg/kg BID; or both co-administered)

Structure (SMILES)	reduction in steatosis (hepatic triglyceride), relative to vehicle administered Western diet fed rats [1, 4] [%]	reduction in steatosis (hepatic triglyceride), relative to vehicle administered Western diet fed rats [1, 5] [%]	hepatic SREBP1 gene expression relative to Western Diet fed and vehicle treated animals [2]	hepatic PCSK9 gene expression relative to Western Diet fed and vehicle treated animals [3]
COc1cc(C(=O)N2CCC3(CC2)CC(=O)c2c(cnn2C(C)C)C3)cc(-c2ccc(C(=O)O)cc2)n1 [Compound A, 4-(4-(1-isopropyl-7-oxo-1,4,6,7-tetrahydrospiro[indazole-5,4′-piperidine]-1′-carbonyl)-6-methoxypyridin-2-yl)benzoic acid]	53	36		
CCOc1cccnc1Oc1cncc(-c2ncc(C(=O)N[C@H]3CCOC3)cn2)c1 [Compound D, (S)-2-(5-((3-ethoxypyridin-2-yl)oxy)pyridin-3-yl)-N-(tetrahydrofuran-3-yl)pyrimidine-5-carboxamide]	30	25	decreased expression	decreased expression
